Measured values from ChEMBL document CHEMBL1201862, “PubChem BioAssay data set” (2004).
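Assay format: 96-well plates, 48-hour exposure. GI50: concentration for 50% inhibition of growth.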 Active and inactive are the calls of the source. Cut-off read from the data, not from the text of the source: active = GI50 up to about 1.1 µM and inactive = higher.

Assays:
Assay in all cases: inhibition of tumour cell growth, NCI panel, 48 h
A549 = system: A549
NCI-H522 = system: NCI-H522
PC-3 = system: PC-3
MDA-MB-435 = system: MDA-MB-435
EKVX = system: EKVX
HCC 2998 = system: HCC 2998
OVCAR-3 = system: OVCAR-3
MCF7 = system: MCF7
DU-145 = system: DU-145
OVCAR-5 = system: OVCAR-5
SR = system: SR
HOP-62 = system: HOP-62
MDA-N = system: MDA-N
TK-10 = system: TK-10
OVCAR-4 = system: OVCAR-4
SF-268 = system: SF-268
NCI-H460 = system: NCI-H460
SN12C = system: SN12C
MOLT-4 = system: MOLT-4

Measured: GI50

O=C(O)CSc1nnc2c3ccccc3c3ccccc3c2n1
inactive: A549 49.5 µM | NCI-H522 49.9 µM | PC-3 50.2 µM | MDA-MB-435 52 µM | EKVX 63 µM | HCC 2998 52.6 µM | OVCAR-3 33.3 µM | MCF7 40.3 µM | DU-145 57.9 µM | OVCAR-5 > 100 µM | SR 31.9 µM | HOP-62 46 µM | MDA-N 73.8 µM | TK-10 > 100 µM | OVCAR-4 45.6 µM | SF-268 56.1 µM | NCI-H460 31.8 µM | SN12C 38.9 µM

CC1(C)C2CCC1(C)[C@H](n1c(=O)n([C@@H]3CC4CCC3(C)C4(C)C)c(=O)n([C@@H]3CC4CCC3(C)C4(C)C)c1=O)C2
inactive: A549 31.8 µM | NCI-H522 37.4 µM | PC-3 67.9 µM | MDA-MB-435 76.7 µM | EKVX 30 µM | HCC 2998 22 µM | OVCAR-3 35.4 µM | MCF7 71.9 µM | DU-145 55.7 µM | OVCAR-5 64 µM | SR 71.4 µM | HOP-62 44.4 µM | MDA-N 68.4 µM | TK-10 42.9 µM | OVCAR-4 > 100 µM | SF-268 41.6 µM | NCI-H460 31.2 µM | MOLT-4 63.4 µM

CCn1c(=O)c2c3ccc(OC(C)=O)cc3[nH]c2c2ccc(OC(C)=O)cc21
inactive: A549 64.7 µM | NCI-H522 37.2 µM | PC-3 26.9 µM | MDA-MB-435 41 µM | HCC 2998 23.7 µM | OVCAR-3 32 µM | MCF7 23.1 µM | DU-145 18.5 µM | OVCAR-5 > 100 µM | SR 36.6 µM | HOP-62 58.1 µM | MDA-N 35.2 µM | TK-10 51.5 µM | OVCAR-4 57.4 µM | SF-268 35.8 µM | NCI-H460 29 µM | SN12C 32.7 µM | MOLT-4 17.6 µM

CN(CCc1ccc(Cl)c(Cl)c1)[C@H]1CCCC[C@H]1N1CCCC1
inactive: A549 > 100 µM | NCI-H522 > 100 µM | PC-3 > 100 µM | MDA-MB-435 > 100 µM | EKVX > 100 µM | HCC 2998 > 100 µM | OVCAR-3 > 100 µM | MCF7 > 100 µM | DU-145 > 100 µM | OVCAR-5 > 100 µM | SR > 100 µM | HOP-62 > 100 µM | MDA-N > 100 µM | TK-10 > 100 µM | OVCAR-4 > 100 µM | SF-268 > 100 µM | SN12C > 100 µM | MOLT-4 > 100 µM

S=C1/C(=N/c2ccccc2)N(c2ccccc2)/C(=N\c2cccc[n+]2Cc2ccccc2)N1c1ccccc1
inactive: A549 20.9 µM | NCI-H522 13.3 µM | PC-3 12.1 µM | MDA-MB-435 10.6 µM | EKVX 19.7 µM | HCC 2998 13.9 µM | OVCAR-3 18.5 µM | MCF7 18.9 µM | DU-145 28.1 µM | OVCAR-5 15.9 µM | SR 15.3 µM | HOP-62 13 µM | MDA-N 11.5 µM | TK-10 26.3 µM | SF-268 20.6 µM | NCI-H460 18.7 µM | SN12C 21 µM | MOLT-4 8.79 µM

C=C1CC[C@@]2(OC1)OC1C[C@H]3[C@@H]4CC=C5C[C@@H](O)CC(OC6OCC(OC(=O)[C@@H](O)[C@@H](C)CC)C(OC(C)=O)C6OC6OC(C)C(O)C(O)C6O)[C@]5(C)[C@H]4CC[C@]3(C)C1[C@@H]2C (some centres undefined)
inactive: A549 2.21 µM | NCI-H522 1.76 µM | PC-3 1.67 µM | MDA-MB-435 1.76 µM | EKVX 2.34 µM | HCC 2998 1.6 µM | OVCAR-3 1.85 µM | MCF7 1.84 µM | DU-145 2.07 µM | OVCAR-5 2.04 µM | SR 2.07 µM | MDA-N 1.92 µM | TK-10 1.88 µM | OVCAR-4 2.81 µM | SF-268 2.06 µM | NCI-H460 1.72 µM | SN12C 2.25 µM | MOLT-4 1.7 µM

CCCCCCCCOC(=O)C12Oc3ccc(-c4ccc5c(c4O)C(=O)C4=C(O)CC(C)C(O)C4(C(=O)OCCCCCCCC)O5)c(O)c3C(=O)C1=C(O)CC(C)C2O (centres undefined)
inactive: A549 4.79 µM | NCI-H522 8.36 µM | PC-3 23.2 µM | MDA-MB-435 9.86 µM | EKVX 28.5 µM | HCC 2998 28.9 µM | OVCAR-3 24.2 µM | MCF7 11.4 µM | DU-145 34.4 µM | OVCAR-5 24 µM | SR 4.26 µM | MDA-N 18 µM | TK-10 15.5 µM | OVCAR-4 19.6 µM | SF-268 12.2 µM | NCI-H460 4.66 µM | SN12C 27.7 µM | MOLT-4 16.3 µM

[N-]=[N+]=CC(=O)OC1CCOCC1
inactive: NCI-H522 > 100 µM | PC-3 > 100 µM | MDA-MB-435 > 100 µM | EKVX > 100 µM | HCC 2998 > 100 µM | OVCAR-3 > 100 µM | MCF7 > 100 µM | DU-145 > 100 µM | OVCAR-5 > 100 µM | SR > 100 µM | HOP-62 > 100 µM | MDA-N > 100 µM | TK-10 > 100 µM | OVCAR-4 > 100 µM | SF-268 > 100 µM | NCI-H460 > 100 µM | SN12C > 100 µM | MOLT-4 > 100 µM

CC1=NN(c2cccc(Cl)c2)C2(C1=Cc1ccc(N(C)C)cc1)C(Cl)C(=O)N2c1nc2ccccc2s1 (centres undefined)
inactive: NCI-H522 19.1 µM | PC-3 > 100 µM | MDA-MB-435 6.18 µM | EKVX > 100 µM | HCC 2998 17.8 µM | OVCAR-3 39.5 µM | MCF7 70.5 µM | DU-145 97.5 µM | OVCAR-5 > 100 µM | SR > 100 µM | HOP-62 17.8 µM | MDA-N 63.7 µM | TK-10 76.4 µM | OVCAR-4 24.2 µM | SF-268 20.3 µM | NCI-H460 > 100 µM | MOLT-4 74 µM

O=[N+]([O-])c1ccc2c(c1)n1c(N3CCCC3)[n+]3ccccc3c1c1c3ccccn3c(N3CCCC3)[n+]21.[O-][Cl+3]([O-])([O-])[O-].[O-][Cl+3]([O-])([O-])[O-]
inactive: A549 > 100 µM | NCI-H522 29 µM | PC-3 > 100 µM | MDA-MB-435 > 100 µM | EKVX > 100 µM | HCC 2998 > 100 µM | OVCAR-3 > 100 µM | MCF7 9.46 µM | DU-145 > 100 µM | OVCAR-5 > 100 µM | SR > 100 µM | MDA-N > 100 µM | TK-10 > 100 µM | OVCAR-4 > 100 µM | SF-268 17.5 µM | NCI-H460 > 100 µM | SN12C 51.8 µM | MOLT-4 43.2 µM
